Measurements: ChEMBL document CHEMBL4507292 (2021)

Tests used:
[1] = tested on: Tyrosine-protein kinase ABL1 (Homo sapiens), P00519 [E255K]; settings: Compound concentration 1000.0 nM
[2] = tested on: Receptor-type tyrosine-protein kinase FLT3 (Homo sapiens), P36888 [UNDEFINED MUTATION]; settings: Compound concentration 1000.0 nM
[3] = target: Megakaryocyte-associated tyrosine-protein kinase (Homo sapiens) (UniProt P42679); settings: Compound concentration 1000.0 nM
[4] = target: Cyclin-dependent kinase 11A (Homo sapiens) (UniProt Q9UQ88); settings: Compound concentration 1000.0 nM
[5] = target: Alpha-1B adrenergic receptor (Homo sapiens, UniProt P35368); assay: GPCRScan assay: inhibition of Alpha1B; parameters: radioligand conc. used [nm] 0.3 – 1.0, parental cells stable HEK
[6] = target: Cyclin-dependent kinase 9 (Homo sapiens) (UniProt P50750); settings: Compound concentration 1000.0 nM
[7] = target: Casein kinase I isoform epsilon (Homo sapiens) (UniProt P49674); settings: Compound concentration 1000.0 nM
[8] = target: Calcium/calmodulin-dependent protein kinase type II subunit alpha (Homo sapiens) (UniProt Q9UQM7); settings: Compound concentration 1000.0 nM
[9] = target: Serine/threonine-protein kinase tousled-like 1 (Homo sapiens) (UniProt Q9UKI8); settings: Compound concentration 1000.0 nM
[10] = target: Ephrin type-B receptor 4 (Homo sapiens) (UniProt P54760); settings: Compound concentration 1000.0 nM
Chain of Ephrin type-B receptor 4 (Homo sapiens) (P54760 whole entry): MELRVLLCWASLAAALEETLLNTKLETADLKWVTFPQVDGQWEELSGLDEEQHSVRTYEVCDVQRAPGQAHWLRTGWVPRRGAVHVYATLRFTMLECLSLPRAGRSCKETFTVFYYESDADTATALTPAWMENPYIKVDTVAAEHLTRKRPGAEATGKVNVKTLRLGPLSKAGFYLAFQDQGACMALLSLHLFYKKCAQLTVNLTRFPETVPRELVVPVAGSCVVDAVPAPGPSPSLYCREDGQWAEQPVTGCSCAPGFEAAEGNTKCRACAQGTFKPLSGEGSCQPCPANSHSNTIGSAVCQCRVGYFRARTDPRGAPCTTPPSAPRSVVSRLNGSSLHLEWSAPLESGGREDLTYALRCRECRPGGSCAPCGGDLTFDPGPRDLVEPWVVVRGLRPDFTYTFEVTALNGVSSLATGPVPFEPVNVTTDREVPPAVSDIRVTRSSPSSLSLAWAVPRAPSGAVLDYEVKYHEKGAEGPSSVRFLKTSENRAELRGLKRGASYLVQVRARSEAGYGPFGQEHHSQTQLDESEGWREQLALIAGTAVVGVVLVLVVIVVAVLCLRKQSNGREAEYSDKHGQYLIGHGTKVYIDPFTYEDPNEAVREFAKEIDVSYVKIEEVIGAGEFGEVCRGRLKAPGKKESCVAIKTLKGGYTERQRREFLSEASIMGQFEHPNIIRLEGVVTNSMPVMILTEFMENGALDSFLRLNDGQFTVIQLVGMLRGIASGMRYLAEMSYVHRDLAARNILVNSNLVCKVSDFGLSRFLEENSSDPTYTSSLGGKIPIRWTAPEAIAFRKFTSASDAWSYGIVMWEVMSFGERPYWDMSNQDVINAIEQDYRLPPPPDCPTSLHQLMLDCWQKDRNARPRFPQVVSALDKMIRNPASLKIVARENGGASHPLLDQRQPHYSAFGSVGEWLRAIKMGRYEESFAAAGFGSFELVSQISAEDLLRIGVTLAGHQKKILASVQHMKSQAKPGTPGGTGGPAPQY

[11] = target: Phosphatidylinositol 3-kinase catalytic subunit type 3 (Homo sapiens) (UniProt Q8NEB9); settings: Compound concentration 1000.0 nM
[12] = target: Serine/threonine-protein kinase Nek9 (Homo sapiens) (UniProt Q8TD19); settings: Compound concentration 1000.0 nM
[13] = target: STE20/SPS1-related proline-alanine-rich protein kinase (Homo sapiens) (UniProt Q9UEW8); settings: Compound concentration 1000.0 nM
[14] = target: Cyclin-dependent kinase-like 3 (Homo sapiens) (UniProt Q8IVW4); settings: Compound concentration 1000.0 nM
[15] = target: Ephrin type-A receptor 1 (Homo sapiens) (UniProt P21709); settings: Compound concentration 1000.0 nM
Chain of Ephrin type-A receptor 1 (Homo sapiens) (P21709 whole entry): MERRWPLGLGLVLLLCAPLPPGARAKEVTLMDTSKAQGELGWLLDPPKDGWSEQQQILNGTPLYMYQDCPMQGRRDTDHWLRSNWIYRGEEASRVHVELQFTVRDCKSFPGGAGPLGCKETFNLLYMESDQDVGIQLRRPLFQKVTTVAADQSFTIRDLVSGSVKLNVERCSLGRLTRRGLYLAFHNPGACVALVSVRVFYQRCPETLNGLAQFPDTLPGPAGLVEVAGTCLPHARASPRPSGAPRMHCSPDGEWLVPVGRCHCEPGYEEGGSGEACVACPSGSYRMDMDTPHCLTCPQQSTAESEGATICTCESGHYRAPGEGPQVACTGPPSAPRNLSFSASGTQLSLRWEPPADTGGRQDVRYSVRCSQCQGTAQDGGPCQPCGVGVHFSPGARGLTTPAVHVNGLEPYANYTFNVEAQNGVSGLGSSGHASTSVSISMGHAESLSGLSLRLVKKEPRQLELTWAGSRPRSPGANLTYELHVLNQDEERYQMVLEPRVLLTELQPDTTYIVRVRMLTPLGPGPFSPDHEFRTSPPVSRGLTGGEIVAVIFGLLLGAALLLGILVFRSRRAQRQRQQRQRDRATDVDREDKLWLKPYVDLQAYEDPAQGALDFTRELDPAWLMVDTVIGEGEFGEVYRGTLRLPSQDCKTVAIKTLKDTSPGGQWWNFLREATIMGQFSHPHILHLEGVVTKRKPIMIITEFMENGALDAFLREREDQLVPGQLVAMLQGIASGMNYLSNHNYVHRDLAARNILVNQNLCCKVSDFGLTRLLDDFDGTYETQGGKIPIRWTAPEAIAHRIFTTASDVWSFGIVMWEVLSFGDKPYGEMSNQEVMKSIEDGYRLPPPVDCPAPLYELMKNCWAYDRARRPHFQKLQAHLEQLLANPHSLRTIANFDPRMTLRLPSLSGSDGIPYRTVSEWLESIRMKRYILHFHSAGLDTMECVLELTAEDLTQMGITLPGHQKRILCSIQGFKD

[16] = target: Tyrosine-protein kinase Fer (Homo sapiens) (UniProt P16591); settings: Compound concentration 1000.0 nM
[17] = target: Histamine H1 receptor (Homo sapiens) (UniProt P35367); settings: Compound concentration 10.0 uM
[18] = target: MAP kinase-activated protein kinase 5 (Homo sapiens) (UniProt Q8IW41); settings: Compound concentration 1000.0 nM
Chain of MAP kinase-activated protein kinase 5 (Homo sapiens) (Q8IW41 whole entry): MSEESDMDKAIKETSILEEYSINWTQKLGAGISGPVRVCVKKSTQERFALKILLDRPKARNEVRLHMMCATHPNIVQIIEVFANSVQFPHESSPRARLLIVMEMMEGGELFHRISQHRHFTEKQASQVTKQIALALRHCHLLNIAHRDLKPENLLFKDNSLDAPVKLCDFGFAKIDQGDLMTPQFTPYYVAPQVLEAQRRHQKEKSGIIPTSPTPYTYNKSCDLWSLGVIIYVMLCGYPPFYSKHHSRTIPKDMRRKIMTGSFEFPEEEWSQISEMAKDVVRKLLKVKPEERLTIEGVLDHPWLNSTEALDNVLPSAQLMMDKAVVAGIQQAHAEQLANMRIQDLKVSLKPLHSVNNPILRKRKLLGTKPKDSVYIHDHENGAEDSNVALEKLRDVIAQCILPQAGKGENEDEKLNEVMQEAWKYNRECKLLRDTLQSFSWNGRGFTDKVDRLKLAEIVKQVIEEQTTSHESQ

[19] = target: 5'-AMP-activated protein kinase catalytic subunit alpha-1 (Homo sapiens) (UniProt Q13131); settings: Compound concentration 1000.0 nM
Chain of 5'-AMP-activated protein kinase catalytic subunit alpha-1 (Homo sapiens) (Q13131 whole entry, looked up): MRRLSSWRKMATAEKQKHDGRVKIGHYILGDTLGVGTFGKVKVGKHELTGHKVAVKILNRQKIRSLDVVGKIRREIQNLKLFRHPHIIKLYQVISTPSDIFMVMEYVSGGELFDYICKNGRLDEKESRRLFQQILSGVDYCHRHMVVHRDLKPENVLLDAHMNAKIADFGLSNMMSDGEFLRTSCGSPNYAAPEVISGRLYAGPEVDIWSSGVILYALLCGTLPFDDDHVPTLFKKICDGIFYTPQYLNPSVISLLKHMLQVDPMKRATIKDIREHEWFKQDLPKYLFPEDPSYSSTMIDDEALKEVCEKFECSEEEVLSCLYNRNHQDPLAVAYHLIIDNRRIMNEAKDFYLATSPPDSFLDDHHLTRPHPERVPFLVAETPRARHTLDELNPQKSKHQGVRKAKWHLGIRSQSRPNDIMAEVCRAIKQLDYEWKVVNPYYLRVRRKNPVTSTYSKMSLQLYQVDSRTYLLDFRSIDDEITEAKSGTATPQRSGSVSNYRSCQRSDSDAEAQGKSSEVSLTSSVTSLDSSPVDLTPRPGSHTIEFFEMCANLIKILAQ

[20] = target: MAP/microtubule affinity-regulating kinase 4 (Homo sapiens) (UniProt Q96L34); settings: Compound concentration 1000.0 nM
[21] = target: Bone morphogenetic protein receptor type-2 (Homo sapiens) (UniProt Q13873); settings: Compound concentration 1000.0 nM
[22] = target: Serine/threonine-protein kinase SIK1 (Homo sapiens) (UniProt P57059); settings: Compound concentration 1000.0 nM
[23] = target: 5-hydroxytryptamine receptor 5A (Homo sapiens) (UniProt P47898); settings: Compound concentration 10.0 uM
Chain of 5-hydroxytryptamine receptor 5A (Homo sapiens) (P47898 whole entry): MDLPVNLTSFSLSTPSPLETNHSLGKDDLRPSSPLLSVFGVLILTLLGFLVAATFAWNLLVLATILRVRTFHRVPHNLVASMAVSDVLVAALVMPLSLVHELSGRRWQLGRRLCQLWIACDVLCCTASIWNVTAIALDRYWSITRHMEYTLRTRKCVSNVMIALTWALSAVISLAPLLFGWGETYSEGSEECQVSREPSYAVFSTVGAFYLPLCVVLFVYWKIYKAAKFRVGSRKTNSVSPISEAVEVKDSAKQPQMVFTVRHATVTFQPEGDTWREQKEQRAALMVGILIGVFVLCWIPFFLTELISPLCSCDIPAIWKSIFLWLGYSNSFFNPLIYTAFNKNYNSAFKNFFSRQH

[24] = target: MAP kinase-interacting serine/threonine-protein kinase 2 (Homo sapiens) (UniProt Q9HBH9); settings: Compound concentration 1000.0 nM
[25] = target: Tyrosine-protein kinase JAK1 (Homo sapiens) (UniProt P23458); settings: Compound concentration 1000.0 nM
[26] = target: Serine/threonine-protein kinase 26 (Homo sapiens) (UniProt Q9P289); settings: Compound concentration 1000.0 nM
[27] = target: Activin receptor type-1-like (Homo sapiens) (UniProt P37023); settings: Compound concentration 1000.0 nM
[28] = target: Wee1-like protein kinase (Homo sapiens) (UniProt P30291); settings: Compound concentration 1000.0 nM
[29] = target: Mitogen-activated protein kinase kinase kinase 14 (Homo sapiens) (UniProt Q99558); settings: Compound concentration 1000.0 nM
[30] = target: Serine/threonine-protein kinase BRSK2 (Homo sapiens) (UniProt Q8IWQ3); settings: Compound concentration 1000.0 nM
[31] = target: Sodium-dependent serotonin transporter (Homo sapiens, UniProt P31645); settings: Compound concentration 10.0 uM
Chain of Sodium-dependent serotonin transporter (P31645 whole entry, looked up): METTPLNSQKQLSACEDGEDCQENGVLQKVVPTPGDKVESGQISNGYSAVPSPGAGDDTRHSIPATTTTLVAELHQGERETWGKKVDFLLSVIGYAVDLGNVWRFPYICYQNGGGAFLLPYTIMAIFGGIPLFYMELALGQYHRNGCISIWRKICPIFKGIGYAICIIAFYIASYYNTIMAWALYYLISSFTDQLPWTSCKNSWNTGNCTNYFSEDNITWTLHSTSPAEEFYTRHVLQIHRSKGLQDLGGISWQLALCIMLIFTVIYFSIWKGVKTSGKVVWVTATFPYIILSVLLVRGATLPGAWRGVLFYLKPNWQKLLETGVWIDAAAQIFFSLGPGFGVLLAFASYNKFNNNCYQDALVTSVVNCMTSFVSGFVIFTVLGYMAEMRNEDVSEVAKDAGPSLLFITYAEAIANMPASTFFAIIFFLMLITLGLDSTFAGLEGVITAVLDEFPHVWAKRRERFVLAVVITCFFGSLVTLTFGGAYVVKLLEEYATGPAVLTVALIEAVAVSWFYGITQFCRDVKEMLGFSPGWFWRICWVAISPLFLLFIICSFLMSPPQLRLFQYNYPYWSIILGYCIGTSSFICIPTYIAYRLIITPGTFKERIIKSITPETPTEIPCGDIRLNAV

[32] = target: Ephrin type-B receptor 2 (Homo sapiens) (UniProt P29323); settings: Compound concentration 1000.0 nM
[33] = tested on: Mast/stem cell growth factor receptor Kit (Homo sapiens), P10721 [V559D,T670I]; settings: Compound concentration 1000.0 nM
[34] = target: Hormonally up-regulated neu tumor-associated kinase (Homo sapiens) (UniProt P57058); settings: Compound concentration 1000.0 nM
Chain of Hormonally up-regulated neu tumor-associated kinase (Homo sapiens) (P57058 whole entry): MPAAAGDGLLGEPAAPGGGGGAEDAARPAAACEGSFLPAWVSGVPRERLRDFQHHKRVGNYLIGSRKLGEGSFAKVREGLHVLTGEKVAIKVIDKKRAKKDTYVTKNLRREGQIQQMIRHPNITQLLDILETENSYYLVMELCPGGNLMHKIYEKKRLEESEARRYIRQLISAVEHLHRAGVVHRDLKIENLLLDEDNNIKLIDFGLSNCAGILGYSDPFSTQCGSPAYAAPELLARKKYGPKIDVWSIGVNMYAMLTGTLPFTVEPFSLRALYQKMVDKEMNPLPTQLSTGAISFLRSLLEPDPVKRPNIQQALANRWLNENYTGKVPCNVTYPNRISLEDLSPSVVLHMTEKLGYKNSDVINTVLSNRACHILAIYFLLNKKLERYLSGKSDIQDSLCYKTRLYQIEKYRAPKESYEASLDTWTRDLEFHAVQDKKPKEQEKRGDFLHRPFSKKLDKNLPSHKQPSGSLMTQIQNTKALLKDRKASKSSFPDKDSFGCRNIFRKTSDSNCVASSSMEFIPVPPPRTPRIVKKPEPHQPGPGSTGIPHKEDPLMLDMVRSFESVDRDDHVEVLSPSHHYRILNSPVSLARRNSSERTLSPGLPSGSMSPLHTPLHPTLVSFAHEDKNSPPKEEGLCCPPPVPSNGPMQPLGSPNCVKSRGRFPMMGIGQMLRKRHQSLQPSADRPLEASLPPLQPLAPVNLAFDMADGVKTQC

[35] = target: Serine/threonine-protein kinase ULK1 (Homo sapiens) (UniProt O75385); settings: Compound concentration 1000.0 nM
[36] = target: Phosphatidylinositol 4,5-bisphosphate 3-kinase catalytic subunit delta isoform (Homo sapiens) (UniProt O00329); settings: Compound concentration 1000.0 nM
[37] = target: Receptor tyrosine-protein kinase erbB-2 (Homo sapiens) (UniProt P04626); settings: Compound concentration 1000.0 nM
[38] = target: Serine/threonine-protein kinase 17B (Homo sapiens) (UniProt O94768); settings: Compound concentration 1000.0 nM
[39] = target: Casein kinase I isoform alpha-like (Homo sapiens) (UniProt Q8N752); settings: Compound concentration 1000.0 nM
Chain of Casein kinase I isoform alpha-like (Homo sapiens) (Q8N752 whole entry, canonical isoform): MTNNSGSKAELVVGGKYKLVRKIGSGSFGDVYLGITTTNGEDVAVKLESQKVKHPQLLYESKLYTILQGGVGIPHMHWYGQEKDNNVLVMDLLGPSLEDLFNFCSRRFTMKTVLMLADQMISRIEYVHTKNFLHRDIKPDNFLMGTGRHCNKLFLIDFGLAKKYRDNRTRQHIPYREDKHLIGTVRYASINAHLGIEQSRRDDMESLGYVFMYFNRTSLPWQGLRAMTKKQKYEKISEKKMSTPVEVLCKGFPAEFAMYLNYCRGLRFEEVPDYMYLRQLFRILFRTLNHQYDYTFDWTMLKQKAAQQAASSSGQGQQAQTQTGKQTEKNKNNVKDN

[40] = target: Serine/threonine-protein kinase Chk1 (Homo sapiens) (UniProt O14757); settings: Compound concentration 1000.0 nM
[41] = target: Serine/threonine-protein kinase 3 (Homo sapiens) (UniProt Q13188); settings: Compound concentration 1000.0 nM
[42] = target: Serine/threonine-protein kinase Chk2 (Homo sapiens) (UniProt O96017); settings: Compound concentration 1000.0 nM
[43] = target: Receptor-type tyrosine-protein kinase FLT3 (Homo sapiens) (UniProt P36888); settings: Compound concentration 1000.0 nM
[44] = target: Dual specificity mitogen-activated protein kinase kinase 1 (Homo sapiens) (UniProt Q02750); settings: Compound concentration 1000.0 nM
[45] = tested on: Tyrosine-protein kinase ABL1 (Homo sapiens), P00519 [Y253F]; settings: Compound concentration 1000.0 nM

O=C(O)c1cc(-c2ccc(C3CCNCC3)cc2)c2ccc(-c3ccc(C(F)(F)F)cc3)cc2c1 [PPTN]
residual activity [1]: 87%
residual activity [2]: 99%
residual activity [3]: 100%
residual activity [4]: 100%
Ki [5]: 3.23 µM
residual activity [6]: 100%
residual activity [7]: 100%
residual activity [8]: 100%
residual activity [9]: 100%
residual activity [10]: 100%
residual activity [11]: 100%
residual activity [12]: 100%
residual activity [13]: 100%
residual activity [14]: 94%
residual activity [15]: 100%
residual activity [16]: 100%
inhibition [17]: 21.6%
residual activity [18]: 100%
residual activity [19]: 100%
residual activity [20]: 100%
residual activity [21]: 100%
residual activity [22]: 100%
inhibition [23]: 4.98%
residual activity [24]: 100%
residual activity [25]: 87%
residual activity [26]: 100%
residual activity [27]: 100%
residual activity [28]: 98%
residual activity [29]: 100%
residual activity [30]: 100%
inhibition [31]: -2.04%
residual activity [32]: 100%
residual activity [33]: 100%
residual activity [34]: 100%
residual activity [35]: 100%
residual activity [36]: 98%
residual activity [37]: 100%
residual activity [38]: 100%
residual activity [39]: 100%
residual activity [40]: 100%
residual activity [41]: 100%
residual activity [42]: 100%
residual activity [43]: 100%
residual activity [44]: 100%
residual activity [45]: 73%

Cc1c(C(=O)O)cc(-c2ccc(C3CCNCC3)cc2)c2ccc(-c3ccc(C(F)(F)F)cc3)cc12 [PPTN-NC]
residual activity [1]: 96%
residual activity [2]: 81%
residual activity [3]: 100%
residual activity [4]: 100%
Ki [5]: 3.6 µM
residual activity [6]: 100%
residual activity [7]: 96%
residual activity [8]: 100%
residual activity [9]: 100%
residual activity [10]: 100%
residual activity [11]: 100%
residual activity [12]: 100%
residual activity [13]: 100%
residual activity [14]: 100%
residual activity [15]: 83%
residual activity [16]: 100%
inhibition [17]: 12.6%
residual activity [18]: 100%
residual activity [19]: 98%
residual activity [20]: 97%
residual activity [21]: 100%
residual activity [22]: 94%
inhibition [23]: -0.81%
residual activity [24]: 100%
residual activity [25]: 79%
residual activity [26]: 100%
residual activity [27]: 100%
residual activity [28]: 80%
residual activity [29]: 100%
residual activity [30]: 100%
inhibition [31]: -7.91%
residual activity [32]: 92%
residual activity [33]: 100%
residual activity [34]: 100%
residual activity [35]: 100%
residual activity [36]: 100%
residual activity [37]: 100%
residual activity [38]: 100%
residual activity [39]: 100%
residual activity [40]: 100%
residual activity [41]: 100%
residual activity [42]: 100%
residual activity [43]: 100%
residual activity [44]: 100%
residual activity [45]: 87%
